Species: Rattus norvegicus
Assay: Open TG-GATES - Regimen: Single
Type: toxicity, organism-based, Sprague-Dawley
Set-up: regimen Single, gender Male, age 6 weeks
Conditions: in vivo, ip, route intraperitoneal injection; for APTT / Bas / Eos / Fbg / Hb / Ht / Lym / MCH / MCHC / MCV / Mono / Neu / PT / Plat / RBC / Ret / WBC: tissue Blood; for KIDNEY_L / KIDNEY_R / KIDNEY_TOTAL: tissue Kidney; for LIVER: tissue Liver; for A/G / ALP / ALT / AST / BUN / CRE / Ca / Cl / DBIL / GLC / IP / K / LDH / Na / PL / RALB / TBIL / TC / TG / TP / gamma-GTP: tissue Plasma
[1] = 120 mg/kg, 3 h, dose level Middle
[2] = 120 mg/kg, 6 h, dose level Middle
[3] = 120 mg/kg, 9 h, dose level Middle
[4] = 120 mg/kg, 24 h, dose level Middle
[5] = 400 mg/kg, 3 h, dose level High
[6] = 400 mg/kg, 6 h, dose level High
[7] = 400 mg/kg, 9 h, dose level High
[8] = 400 mg/kg, 24 h, dose level High

## CC(C)=CC(=O)C=C(C)C [PHORONE]
[1]
  TERMINAL_BW: 223.2 g
  APTT: 16.6 s
  Bas: 0%
  Eos: 0.8%
  Fbg: 219.8 mg/dL
  Hb: 13.8 g/dL
  Ht: 41%
  Lym: 74.4%
  MCH: 21.7 pg
  MCHC: 33.5%
  MCV: 64.6 fL
  Mono: 8.4%
  Neu: 16.2%
  PT: 12.2 s
  Plat: 124.2 x10_4/uL
  RBC: 635.4 x10_4/ul
  Ret: 8.8%
  WBC: 65.2 x10_2/uL
  KIDNEY_L: 1 g
  KIDNEY_R: 1 g
  KIDNEY_TOTAL: 2 g
  LIVER: 10.2 g
  A/G: 2.2
  ALP: 897.8 IU/L
  ALT: 34.6 IU/L
  AST: 76.2 IU/L
  BUN: 15.2 mg/dL
  CRE: 0.6 mg/dL
  Ca: 11.2 mg/dL
  Cl: 103 meq/L
  DBIL: 0.038 mg/dL
  GLC: 213.4 mg/dL
  IP: 10.1 mg/dL
  K: 5.1 meq/L
  LDH: 79.8 IU/L
  Na: 137.2 meq/L
  PL: 132.6 mg/dL
  RALB: 3.6 g/dL
  TBIL: 0.6 mg/dL
  TC: 79 mg/dL
  TG: 50.8 mg/dL
  TP: 5.3 g/dL
  gamma-GTP: 1.2 IU/L
[2]
  TERMINAL_BW: 221.7 g
  APTT: 17.1 s
  Bas: 0%
  Eos: 1%
  Fbg: 220.6 mg/dL
  Hb: 13.7 g/dL
  Ht: 41.3%
  Lym: 75.6%
  MCH: 21.7 pg
  MCHC: 33.1%
  MCV: 65.4 fL
  Mono: 4.4%
  Neu: 19.2%
  PT: 12.2 s
  Plat: 114 x10_4/uL
  RBC: 633.2 x10_4/ul
  Ret: 8.5%
  WBC: 102.3 x10_2/uL
  KIDNEY_L: 1 g
  KIDNEY_R: 1 g
  KIDNEY_TOTAL: 2 g
  LIVER: 9.9 g
  A/G: 1.9
  ALP: 687.6 IU/L
  ALT: 34.4 IU/L
  AST: 71 IU/L
  BUN: 15 mg/dL
  CRE: 0.4 mg/dL
  Ca: 10.7 mg/dL
  Cl: 104.2 meq/L
  DBIL: 0.032 mg/dL
  GLC: 194.4 mg/dL
  IP: 9.5 mg/dL
  K: 4.7 meq/L
  LDH: 81.6 IU/L
  Na: 138 meq/L
  PL: 130.6 mg/dL
  RALB: 3.6 g/dL
  TBIL: 0.5 mg/dL
  TC: 80 mg/dL
  TG: 29 mg/dL
  TP: 5.5 g/dL
  gamma-GTP: 2 IU/L
[3]
  TERMINAL_BW: 216.1 g
  APTT: 16.6 s
  Bas: 0%
  Eos: 0.8%
  Fbg: 229.2 mg/dL
  Hb: 13.4 g/dL
  Ht: 40.4%
  Lym: 72.6%
  MCH: 21.7 pg
  MCHC: 33.1%
  MCV: 65.5 fL
  Mono: 6.6%
  Neu: 20%
  PT: 12.1 s
  Plat: 113.6 x10_4/uL
  RBC: 617.2 x10_4/ul
  Ret: 8.9%
  WBC: 90 x10_2/uL
  KIDNEY_L: 1 g
  KIDNEY_R: 1 g
  KIDNEY_TOTAL: 2 g
  LIVER: 8.9 g
  A/G: 2.2
  ALP: 717.4 IU/L
  ALT: 31 IU/L
  AST: 66.8 IU/L
  BUN: 11.2 mg/dL
  CRE: 0.5 mg/dL
  Ca: 10.7 mg/dL
  Cl: 106.2 meq/L
  DBIL: 0.058 mg/dL
  GLC: 202.6 mg/dL
  IP: 10 mg/dL
  K: 4.7 meq/L
  LDH: 89.8 IU/L
  Na: 138.4 meq/L
  PL: 128 mg/dL
  RALB: 3.7 g/dL
  TBIL: 0.4 mg/dL
  TC: 74.2 mg/dL
  TG: 43.8 mg/dL
  TP: 5.4 g/dL
  gamma-GTP: 1.6 IU/L
[4]
  TERMINAL_BW: 229.2 g
  APTT: 16.9 s
  Bas: 0%
  Eos: 0.8%
  Fbg: 244 mg/dL
  Hb: 12.9 g/dL
  Ht: 39.2%
  Lym: 75.4%
  MCH: 21.3 pg
  MCHC: 32.9%
  MCV: 64.7 fL
  Mono: 6.8%
  Neu: 17.2%
  PT: 11.7 s
  Plat: 121.5 x10_4/uL
  RBC: 606.2 x10_4/ul
  Ret: 8.1%
  WBC: 94.9 x10_2/uL
  KIDNEY_L: 1.1 g
  KIDNEY_R: 1.1 g
  KIDNEY_TOTAL: 2.2 g
  LIVER: 11.9 g
  A/G: 2.1
  ALP: 860.6 IU/L
  ALT: 34.4 IU/L
  AST: 58.2 IU/L
  BUN: 15.8 mg/dL
  CRE: 0.5 mg/dL
  Ca: 10.9 mg/dL
  Cl: 103.6 meq/L
  DBIL: 0.03 mg/dL
  GLC: 194.8 mg/dL
  IP: 7.7 mg/dL
  K: 4.6 meq/L
  LDH: 176.4 IU/L
  Na: 139.2 meq/L
  PL: 148 mg/dL
  RALB: 3.7 g/dL
  TBIL: 0.4 mg/dL
  TC: 77.2 mg/dL
  TG: 106.2 mg/dL
  TP: 5.6 g/dL
  gamma-GTP: 0.6 IU/L
[5]
  TERMINAL_BW: 224 g
  APTT: 18 s
  Bas: 0%
  Eos: 0.8%
  Fbg: 206.6 mg/dL
  Hb: 13.7 g/dL
  Ht: 40.8%
  Lym: 81%
  MCH: 21.9 pg
  MCHC: 33.6%
  MCV: 65.1 fL
  Mono: 5%
  Neu: 13.6%
  PT: 12.9 s
  Plat: 130 x10_4/uL
  RBC: 626.2 x10_4/ul
  Ret: 9.1%
  WBC: 81.1 x10_2/uL
  KIDNEY_L: 0.9 g
  KIDNEY_R: 1 g
  KIDNEY_TOTAL: 1.9 g
  LIVER: 9.4 g
  A/G: 2.4
  ALP: 931 IU/L
  ALT: 51 IU/L
  AST: 106.6 IU/L
  BUN: 23.4 mg/dL
  CRE: 1.1 mg/dL
  Ca: 11 mg/dL
  Cl: 99.4 meq/L
  DBIL: 0.046 mg/dL
  GLC: 292.8 mg/dL
  IP: 9.8 mg/dL
  K: 4.6 meq/L
  LDH: 282.6 IU/L
  Na: 136 meq/L
  PL: 110.6 mg/dL
  RALB: 3.8 g/dL
  TBIL: 0.9 mg/dL
  TC: 67 mg/dL
  TG: 18 mg/dL
  TP: 5.4 g/dL
  gamma-GTP: 1.8 IU/L
[6]
  TERMINAL_BW: 215 g
  APTT: 17.1 s
  Bas: 0%
  Eos: 1.2%
  Fbg: 208.2 mg/dL
  Hb: 13.4 g/dL
  Ht: 40.7%
  Lym: 61%
  MCH: 21.4 pg
  MCHC: 33%
  MCV: 64.8 fL
  Mono: 8%
  Neu: 30.2%
  PT: 13.9 s
  Plat: 123.8 x10_4/uL
  RBC: 627.6 x10_4/ul
  Ret: 9.2%
  WBC: 84.8 x10_2/uL
  KIDNEY_L: 0.9 g
  KIDNEY_R: 1 g
  KIDNEY_TOTAL: 1.9 g
  LIVER: 8.6 g
  A/G: 2.2
  ALP: 925 IU/L
  ALT: 73.2 IU/L
  AST: 174 IU/L
  BUN: 23 mg/dL
  CRE: 0.7 mg/dL
  Ca: 10.5 mg/dL
  Cl: 106.4 meq/L
  DBIL: 0.048 mg/dL
  GLC: 168 mg/dL
  IP: 11.2 mg/dL
  K: 4.4 meq/L
  LDH: 277.8 IU/L
  Na: 138.2 meq/L
  PL: 110.4 mg/dL
  RALB: 3.7 g/dL
  TBIL: 1 mg/dL
  TC: 67.2 mg/dL
  TG: 24.4 mg/dL
  TP: 5.5 g/dL
  gamma-GTP: 1.4 IU/L
[7]
  TERMINAL_BW: 210.1 g
  APTT: 17.1 s
  Bas: 0%
  Eos: 1%
  Fbg: 209.8 mg/dL
  Hb: 13.4 g/dL
  Ht: 40.7%
  Lym: 56.4%
  MCH: 21.6 pg
  MCHC: 33%
  MCV: 65.4 fL
  Mono: 8%
  Neu: 35%
  PT: 13.9 s
  Plat: 123.6 x10_4/uL
  RBC: 622.2 x10_4/ul
  Ret: 10.3%
  WBC: 125.6 x10_2/uL
  KIDNEY_L: 1 g
  KIDNEY_R: 1 g
  KIDNEY_TOTAL: 2 g
  LIVER: 8.3 g
  A/G: 2.1
  ALP: 915.4 IU/L
  ALT: 60.2 IU/L
  AST: 166.6 IU/L
  BUN: 23.8 mg/dL
  CRE: 0.6 mg/dL
  Ca: 10.9 mg/dL
  Cl: 104.6 meq/L
  DBIL: 0.06 mg/dL
  GLC: 155.2 mg/dL
  IP: 11.6 mg/dL
  K: 4.1 meq/L
  LDH: 257 IU/L
  Na: 138.2 meq/L
  PL: 107.4 mg/dL
  RALB: 3.9 g/dL
  TBIL: 0.8 mg/dL
  TC: 71 mg/dL
  TG: 38.6 mg/dL
  TP: 5.8 g/dL
  gamma-GTP: 1.2 IU/L
[8]
  TERMINAL_BW: 201.7 g
  APTT: 24.9 s
  Bas: 0%
  Eos: 0.4%
  Fbg: 190.4 mg/dL
  Hb: 14.1 g/dL
  Ht: 42.5%
  Lym: 77%
  MCH: 21.6 pg
  MCHC: 33.1%
  MCV: 65.1 fL
  Mono: 3.2%
  Neu: 19.4%
  PT: 20 s
  Plat: 121.3 x10_4/uL
  RBC: 652.2 x10_4/ul
  Ret: 7.6%
  WBC: 140.6 x10_2/uL
  KIDNEY_L: 1.1 g
  KIDNEY_R: 1.1 g
  KIDNEY_TOTAL: 2.1 g
  LIVER: 9.4 g
  A/G: 2.2
  ALP: 828.6 IU/L
  ALT: 296.8 IU/L
  AST: 1408.4 IU/L
  BUN: 19.2 mg/dL
  CRE: 0.5 mg/dL
  Ca: 10.2 mg/dL
  Cl: 110.6 meq/L
  DBIL: 0.2 mg/dL
  GLC: 167.2 mg/dL
  IP: 8.4 mg/dL
  K: 3.9 meq/L
  LDH: 4785 IU/L
  Na: 139.2 meq/L
  PL: 97.6 mg/dL
  RALB: 3.7 g/dL
  TBIL: 0.6 mg/dL
  TC: 56.8 mg/dL
  TG: 23.2 mg/dL
  TP: 5.4 g/dL
  gamma-GTP: 0.8 IU/L
